Assays:
Format in all cases: cell-based, human
[1] = tested on: HTT; test: Splicing RT-qPCR assay, HTT mRNA canonical junction (CJ) and alternative junction (AJ); conditions: Homo sapiens, RT-qPCR panel, canonical junction mRNA; compound concentration having 50% response in CJ decrease; read-out: HTT IC50 (decrease in CJ mRNA levels)
Procedure, shortened: (§1)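 A673 or K562 cells treated 24 h at 37 °C with 11-point 3-fold dilutions, top 10 uM, DMSO ≤0.25%. Lysates read by RT-qPCR for CJ and AJ isoforms, normalized to GAPDH, GUSB or PPIA; ΔΔCt vs DMSO converted to RQ, then percent response.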

[2] = tested on: MYB; test: Splicing RT-qPCR assay, MYB mRNA canonical junction (CJ) and alternative junction (AJ); conditions: Homo sapiens, RT-qPCR panel, canonical junction mRNA; compound concentration having 50% response in CJ decrease; read-out: MYB IC50 (decrease in CJ mRNA levels)
Procedure, shortened: as §1

[3] = tested on: SMN2; test: Splicing RT-qPCR panel, SMN2 canonical junction (CJ) mRNA; conditions: Homo sapiens, RT-qPCR panel, canonical junction mRNA; compound concentration having 50% response in CJ decrease; read-out: SMN2 IC50 (decrease in CJ mRNA levels)
Procedure, shortened: as §1

[4] = tested on: Target C; test: Splicing RT-qPCR panel, Target C canonical junction (CJ) mRNA; conditions: Homo sapiens, RT-qPCR panel, canonical junction mRNA; compound concentration having 50% response in CJ decrease; read-out: Target C IC50 (decrease in CJ mRNA levels)
Procedure, shortened: as §1

[5] = tested on: MYB; test: HiBiT protein abundance assay, MYB; conditions: Homo sapiens, K562, 24 h, Table 13A, modified K562 cells
Procedure, shortened: (§2)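 K562 cells with endogenous HiBiT-tagged target were treated 24 h at 37 °C with compound (10-point 3-fold dilution, top 10 μM final, DMSO ≤0.25%). Lytic LgBiT luminescence was normalized to unmodified K562 (baseline) and DMSO-treated tagged cells; IC50 interpolated at 50% from four-parameter logistic fit.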

[6] = tested on: HTT; test: HiBiT protein abundance assay, HTT; conditions: Homo sapiens, K562, 24 h, Table 13A, modified K562 cells
Procedure, shortened: as §2

[7] = tested on: Target C; test: HiBiT protein abundance assay, Target C; conditions: Homo sapiens, K562, 24 h, Table 13A, modified K562 cells
Procedure, shortened: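 HiBiT knock-in K562-derived cells, 10000 cells/well, were treated 24 h at 37 °C with a 10-point 3-fold dilution series (top 10 μM final, DMSO ≤0.25%). Lytic HiBiT luminescence was normalized to unmodified K562 and DMSO controls; IC50 was interpolated at 50% from a four-parameter logistic fit.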

IC50 [1] | IC50 [2] | IC50 [3] | IC50 [4] | IC50 [5] | IC50 [6] | IC50 [7] | Compound
1000 to 10000 nM | 1000 to 10000 nM | 1000 to 10000 nM | > 10000 nM | 1000 to 10000 nM | 1000 to 10000 nM | 1000 to 10000 nM | CC1(C)CN(c2ncc(-c3ccc(-c4cn[nH]c4)c4ncsc34)nn2)CC(C)(C)N1 [Compound 563]
100 to 1000 nM | 1000 to 10000 nM | 100 to 1000 nM | 1000 to 10000 nM | 1000 to 10000 nM | 100 to 1000 nM | 100 to 1000 nM | CN1CCN(c2ncc(-c3ccc(-c4cn[nH]c4)c4ncsc34)nn2)CC1C1CC1 (stereo not shown) [Compound 564]
1000 to 10000 nM | 1000 to 10000 nM | 1000 to 10000 nM | > 10000 nM | 1000 to 10000 nM | 1000 to 10000 nM | 1000 to 10000 nM | c1nc2c(-c3cn[nH]c3)ccc(-c3cnc(N4CCN5CCCC5C4)nn3)c2s1 (stereo not shown) [Compound 565]
100 to 1000 nM | 1000 to 10000 nM | 1000 to 10000 nM | 1000 to 10000 nM | 1000 to 10000 nM | 100 to 1000 nM | 1000 to 10000 nM | c1nc2c(-c3cn[nH]c3)ccc(-c3cnc(N4CCN5CCCCC5C4)nn3)c2s1 (stereo not shown) [Compound 566]
100 to 1000 nM | > 10000 nM | 1000 to 10000 nM | 1000 to 10000 nM | 1000 to 10000 nM | 100 to 1000 nM | 1000 to 10000 nM | C[C@H]1CN(c2ncc(-c3ccc(-c4cn[nH]c4)c4ncsc34)nn2)C[C@@H](C2CC2)N1 [Compound 568]
100 to 1000 nM | 1000 to 10000 nM | 1000 to 10000 nM | 1000 to 10000 nM | 1000 to 10000 nM | 100 to 1000 nM | 1000 to 10000 nM | CC(C)(C)NC1CCN(c2ncc(-c3ccc(-c4cn[nH]c4)c4ncsc34)nn2)C1 (stereo not shown) [Compound 569]
100 to 1000 nM | 100 to 1000 nM | 100 to 1000 nM | 100 to 1000 nM | 1000 to 10000 nM | 100 to 1000 nM | 100 to 1000 nM | CC(C)(C)C1CN(c2ncc(-c3ccc(-c4cn[nH]c4)c4ncsc34)nn2)CCN1 (stereo not shown) [Compound 570]
1000 to 10000 nM | 1000 to 10000 nM | 1000 to 10000 nM | 1000 to 10000 nM | 1000 to 10000 nM | 100 to 1000 nM | 1000 to 10000 nM | C[C@@H]1CN(c2ncc(-c3ccc(-n4cccn4)c4[nH]ncc34)nn2)C[C@H](C)N1 [Compound 571]
100 to 1000 nM | > 10000 nM | 1000 to 10000 nM | > 10000 nM | 1000 to 10000 nM | 1000 to 10000 nM | > 10000 nM | c1cnn(-c2ccc(-c3cnc(N4CCNC5(CC5)C4)nn3)c3cn[nH]c23)c1 [Compound 577]
100 to 1000 nM | 1000 to 10000 nM | < 100 nM | 1000 to 10000 nM | 1000 to 10000 nM | 100 to 1000 nM | 1000 to 10000 nM | CC(C)(C)[C@@H]1CN(c2ncc(-c3ccc(-n4cccn4)c4[nH]ncc34)nn2)CCN1 [Compound 582]

Compound | IC50 [1] | IC50 [2] | IC50 [3] | IC50 [4] | IC50 [5] | IC50 [6] | IC50 [7]
CN(c1ncc(-c2ccc(-c3cn[nH]c3)c3ncsc23)nn1)C1CC(C)(C)NC(C)(C)C1 [Compound 567] | 100 to 1000 nM | 1000 to 10000 nM | 100 to 1000 nM | 100 to 1000 nM | 1000 to 10000 nM | 100 to 1000 nM | 100 to 1000 nM
CN(c1ncc(-c2ccc(-c3cn[nH]c3)c3ncsc23)nn1)[C@@H]1CC2CCC[C@@H](C1)N2C [Compound 573] | 1000 to 10000 nM | > 10000 nM | > 10000 nM | > 10000 nM | 1000 to 10000 nM | 1000 to 10000 nM | 1000 to 10000 nM
CN(c1ncc(-c2ccc(-n3cccn3)c3[nH]ncc23)nn1)[C@@H]1C[C@H]2CCC[C@@H](C1)N2C [Compound 575] | 100 to 1000 nM | > 10000 nM | 1000 to 10000 nM | 1000 to 10000 nM | 1000 to 10000 nM | 100 to 1000 nM | 1000 to 10000 nM

From patent US20240368163A1, “COMPOUNDS AND METHODS FOR MODULATING SPLICING” (REMIX THERAPEUTICS INC., priority 2021, published 2024)
